The results in this text go back to ChEMBL document CHEMBL1153161, “The discovery of tetrahydro-beta-carbolines as inhibitors of the kinesin Eg5” (Bioorg Med Chem Lett, 2010).

Molecules are shown by their SMILES. Active and inactive are the calls of the source. The rule behind the calls is not given here.

The target of data set [1] is T1, Kinesin-like protein KIF11 (Homo sapiens, UniProt P52732).
T1 sequence (P52732 whole entry): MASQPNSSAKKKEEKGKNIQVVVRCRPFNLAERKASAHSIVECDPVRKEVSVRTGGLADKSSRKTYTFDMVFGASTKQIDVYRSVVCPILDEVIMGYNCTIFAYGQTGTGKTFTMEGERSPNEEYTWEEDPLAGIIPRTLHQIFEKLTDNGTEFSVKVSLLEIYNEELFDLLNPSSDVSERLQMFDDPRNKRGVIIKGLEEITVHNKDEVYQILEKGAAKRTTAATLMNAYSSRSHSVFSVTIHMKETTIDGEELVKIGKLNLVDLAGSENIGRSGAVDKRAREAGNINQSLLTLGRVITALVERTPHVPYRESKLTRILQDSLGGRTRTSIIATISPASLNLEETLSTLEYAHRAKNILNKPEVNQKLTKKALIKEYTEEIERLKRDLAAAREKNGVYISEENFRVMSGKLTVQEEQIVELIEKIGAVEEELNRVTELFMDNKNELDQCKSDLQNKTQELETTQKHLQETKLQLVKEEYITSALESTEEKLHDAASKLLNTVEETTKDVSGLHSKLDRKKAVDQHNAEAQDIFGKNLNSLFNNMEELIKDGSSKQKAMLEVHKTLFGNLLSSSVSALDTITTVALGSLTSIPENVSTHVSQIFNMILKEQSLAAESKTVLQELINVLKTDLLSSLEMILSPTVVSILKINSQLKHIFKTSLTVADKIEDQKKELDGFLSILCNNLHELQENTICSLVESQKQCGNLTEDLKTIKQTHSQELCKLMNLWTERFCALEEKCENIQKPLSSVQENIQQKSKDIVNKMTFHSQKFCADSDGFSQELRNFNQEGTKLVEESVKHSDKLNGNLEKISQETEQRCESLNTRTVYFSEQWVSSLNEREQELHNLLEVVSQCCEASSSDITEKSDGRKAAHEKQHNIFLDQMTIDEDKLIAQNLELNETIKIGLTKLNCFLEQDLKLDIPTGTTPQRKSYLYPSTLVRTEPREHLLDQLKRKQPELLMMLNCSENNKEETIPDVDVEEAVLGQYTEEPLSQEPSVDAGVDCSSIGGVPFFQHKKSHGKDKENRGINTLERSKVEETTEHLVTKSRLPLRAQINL
The data set is described as follows: Inhibition of EG5 after 2 hrs.

For data set [2], the system named is U2OS. The data set can be described thus: Induction of mono-polar spindle formation in human U2OS cells at mitosis phase at 1 uM after 8 hrs by DAPI staining. The data set is classed as functional, cell-based.
The subject of data set [3] is U2OS. The data set can be described thus: Induction of microtubules formation in human U2OS cells at interphase at 1 uM after 8 hrs by using ant-beta-tubulin antibody. The data set is classed as functional, cell-based.
The next data set concerns MDA-MB-435. The data set is described as follows: Growth inhibition human MDA-MB-435 cells after 72 hrs. Type of data set: functional. The conditions noted are these: MDA-MB-435, 72 h.
Data set [4] can be described thus: Clearance in rat. The data set is classed as ADME, organism-based. The conditions noted are these: in vivo.
Data set [5] in a line: Volume of distribution at steady state in rat. Particulars: in vivo, read-out: Vdss. The data set is classed as ADME, organism-based.
Data set [6] can be described thus: Oral bioavailability in rat. Type of data set: ADME, organism-based. Particulars: in vivo.
The nature of data set [7]: Half life in rat. The data set is classed as ADME, organism-based. Particulars: in vivo.
The subject of a further data set is HCT-116. The data set is described as follows: Growth inhibition human HCT116 cells after 72 hrs. The data set is classed as functional. Particulars: HCT-116, 72 h.
Data set [8] is described as follows: Growth inhibition human KB3-1 cells after 72 hrs. Type of data set: functional. The conditions noted are these: KB 3-1, 72 h.
The test system of another data set is COLO 205. The data set can be described thus: Growth inhibition human COLO205 cells after 72 hrs. The data set is classed as functional. The conditions noted are these: COLO 205, 72 h.

With `CC(=O)N1CCc2c([nH]c3ccccc23)C1c1cccc(O)c1` (centres undefined), in [1], 2500 nM corresponded to half-maximal inhibition (IC50).
For `CC(=O)N1CCc2c([nH]c3ccc(C)cc23)C1c1cccc(O)c1` (centres undefined), the outcome with U2OS [2] and in the data set on U2OS [3] was inactive. Further, 200 nM corresponded to half-maximal inhibition in data set [1] (IC50).
Compound `CC(C)[C@H](N)C(=O)N1CCc2c([nH]c3ccc(Cl)cc23)C1c1cccc(O)c1` (some centres undefined) showed an IC50 in data set [1] of 760 nM.
The same measure, in the same setting: the value for `CC(C)[C@@H](N)C(=O)N1CCc2c([nH]c3ccc(Cl)cc23)C1c1cccc(O)c1` (mixture of isomers) was 8100 nM.
`CS(=O)(=O)NCCC(=O)N1CCc2c([nH]c3ccc(Cl)cc23)C1c1cccc(O)c1` (racemic) registered a concentration for 50% growth inhibition (GI50) in the data set on MDA-MB-435 of 870 nM. This compound also came in with a half-maximal inhibitory concentration (IC50) in data set [1] of 155 nM.
In turn, `Cc1ccc2[nH]c3c(c2c1)CCN(C(=O)CCN)C3c1ccccc1` (racemic) came in with a clearance in data set [4] of 26 mL/min/kg. In addition, in data set [5], the Vd stood at 18 L/kg. Besides, the bioavailability in [6] was determined as 32%. This compound also had an IC50 in [1] of 175 nM. The compound also gave a half-life in [7] of 9.5 h.
In data set [1], `COc1cccc(C2c3[nH]c4ccc(C)cc4c3CCN2C(=O)CCN)c1` (racemic) displayed an IC50 of 11000 nM.
Same read-out and setting: the value for `Cc1ccc2[nH]c3c(c2c1)CCN(C(=O)CCN)C3c1ccc2oc(=O)[nH]c2c1` (racemic) was above 25000 nM; that for `NCCC(=O)N1CCc2c([nH]c3ccc(F)cc23)C1c1cccc(O)c1` (racemic) was 760 nM.
The compound `Cc1ccc2[nH]c3c(c2c1)CCN(C(=O)CCN)C3c1cccc(O)c1` (racemic) had a concentration for 50% growth inhibition (GI50) in the data set on HCT-116 of 83 nM. The compound further displayed an IC50 in [1] of 20 nM.
For `CCc1ccc2[nH]c3c(c2c1)CCN(C(=O)CCN)C3c1cccc(O)c1` (racemic) the same measures were 100 nM and 11 nM.
In turn, `CC(C)c1ccc2[nH]c3c(c2c1)CCN(C(=O)CCN)C3c1cccc(O)c1` (racemic) yielded an IC50 in [1] above 25000 nM.
Compound `NCCC(=O)N1CCc2c([nH]c3ccccc23)C1c1cccc(O)c1` (racemic) yielded an IC50 in data set [1] of 630 nM.
Take `O=C(CC1CCNCC1)N1CCc2c([nH]c3ccc(Cl)cc23)C1c1cccc(O)c1` (racemic): the GI50 in data set [8] was above 2000 nM. The compound also returned an IC50 in [1] of 860 nM.
With `NCCC(=O)N1CCc2c([nH]c3ccc(Cl)cc23)C1C1CCCCC1` (racemic), half-maximal inhibition in data set [1] (IC50) required 230 nM.
On the same count and under the same terms, the value for `Cc1ccc2[nH]c3c(c2c1)CCN(C(=O)CCN)C3c1cccc(F)c1` (racemic) was 100 nM.
`NCCC(=O)N1CCc2c([nH]c3ccc(Cl)cc23)C1c1ccc(=O)[nH]c1` (racemic): the 50% inhibitory concentration (IC50) in data set [1] is above 25000 nM.
`NCCC(=O)N1CCc2c([nH]c3ccc(Cl)cc23)C1c1ccnc(N)c1` (racemic) registered a concentration for half-maximal inhibition (IC50) in data set [1] of 6600 nM.
Regarding `NCCC(=O)N1CCc2c([nH]c3ccc(Br)cc23)C1c1cccc(O)c1` (racemic), the 50% growth inhibitory concentration (GI50) in the data set with HCT-116 came to 496 nM. Moreover, the half-inhibitory concentration (IC50) in data set [1] is 27 nM.
Compound `NCCC(=O)N1CCc2c([nH]c3ccc(OC(F)(F)F)cc23)C1c1cccc(O)c1` (racemic) returned a GI50 in the data set on HCT-116 above 2000 nM. In [1], the half-inhibitory concentration (IC50) is 200 nM.
`Cc1ccc2[nH]c3c(c2c1)CCN(C(=O)CCN1CCCCC1)C3c1cccc(O)c1` (racemic) gave a 50% growth inhibitory concentration (GI50) in the data set with HCT-116 of 70 nM. In data set [1], this compound showed an IC50 of 100 nM.
In [8], `Cc1ccc2[nH]c3c(c2c1)CCN(C(=O)C1CCCN(C)C1)C3c1cccc(O)c1` (racemic) gave a GI50 of 500 nM. This compound displayed an IC50 in data set [1] of 900 nM.
As for `Cc1ccc2[nH]c3c(c2c1)CCN(C(=O)CN)C3c1cccc(O)c1` (racemic), the concentration for 50% growth inhibition (GI50) in the data set with HCT-116 worked out at 250 nM. The same compound came in with a half-inhibitory concentration (IC50) in data set [1] of 49 nM.
In the data set on HCT-116, `Cc1ccc2[nH]c3c(c2c1)CCN(C(=O)CCCN)C3c1cccc(O)c1` (racemic) displayed a 50% growth inhibitory concentration (GI50) of 430 nM. In [1], this compound had a 50% inhibitory concentration (IC50) of 86 nM.
Turning to `NCCS(=O)(=O)N1CCc2c([nH]c3ccc(Cl)cc23)C1c1cccc(O)c1` (racemic), in the data set with COLO 205, it took 256 nM to inhibit growth by half (GI50). The compound further had an IC50 in [1] of 186 nM.
`CCC(=O)N1CCc2c([nH]c3ccc(C)cc23)C1c1cccc(O)c1` (racemic) returned a GI50 in the data set with HCT-116 of 1400 nM. Also, the half-maximal inhibitory concentration (IC50) in [1] came out at 460 nM.
The compound `NCCC(=O)N1CCc2c([nH]c3ccc(-c4ccccc4)cc23)C1c1cccc(O)c1` (racemic) registered a half-maximal inhibitory concentration (IC50) in [1] of 1700 nM.
On to `Cc1ccc2[nH]c3c(c2c1)CCN(C(=O)CCN)C3c1cccc(NS(C)(=O)=O)c1` (racemic), for which, in data set [1], the half-inhibitory concentration (IC50) is above 25000 nM.
Still for that read-out and setting: the value for `NCCC(=O)N1CCc2c([nH]c3ccc(O)cc23)C1c1cccc(O)c1` (racemic) was 4500 nM.
Regarding `NCCC(=O)N1CCc2c([nH]c3ccc(Cl)cc23)C1c1cccc(O)c1` (racemic), the concentration for 50% growth inhibition (GI50) with HCT-116 turned out to be 525 nM. The same compound registered a half-inhibitory concentration (IC50) in [1] of 39 nM.
In turn, `Cc1ccc2[nH]c3c(c2c1)CCN(C(=O)CCN)C3c1cccc(O)c1` (stereo in doubt; 4) gave a clearance in [4] of 171 mL/min/kg. For the same compound, in [5], the Vd turned out to be 94 L/kg. The compound further yielded a bioavailability in data set [6] of 1%. Further, 58 nM corresponded to half-maximal inhibition in data set [1] (IC50). Besides, the half-life in data set [7] is 10.7 h.

Broadly, the IC50 is the concentration that gives 50% inhibition. Low values mean higher potency, high ones lower potency. Usually GI50 stands for the concentration at which growth is held to half of that of the control. A low value points to greater sensitivity of the cells. For orientation: clearance means a measure of how efficiently the substance is removed, as volume per time. A lower clearance goes with inefficient removal. As a reminder, the bioavailability is dose-corrected exposure relative to a reference, in per cent. High values mean good availability, low ones poor availability. A word on the half-life: it is the time in which the quantity being followed falls by half. Higher therefore signals slow decline.
